Assay results published in patent US8436043B2 (Takeda Pharmaceutical Company Limited, priority 2008, dated 2013).

Target: T1, human glucagon receptor (Homo sapiens, UniProt P47871)
T1 construct: made in house; host or cells: FreeStyle CHO cells, transient transfection with pMSRαneo/hGCGR; membrane fraction (35,000 rpm pellet)
Assay: Glucagon binding inhibitory activity ([125I]-glucagon binding to glucagon receptor membrane protein)
Conditions: for inhibition at 10 µM: test compound 10 μM, 0.4% DMSO = 0%, non-labeled glucagon 1 μM = 100%, read-out: inhibitory rate (%) at 10 μM
Method: The glucagon binding inhibitory action of the compound of the present invention was evaluated by the following method.
(1) Cloning of Human Glucagon Receptor Gene
Human glucagon receptor gene was cloned by PCR reaction using human pancreas Marathon-ready cDNA (Clontech) as a template and the following primer set.
PCR reaction was performed using Advantage 2 polymerase (Clontech) and according to the attached protocol. The obtained PCR product was electrophoresed on an agarose gel (1%). An about 1.4 kb of DNA fragment containing a glucagon receptor gene was recovered from the gel and digested with restriction enzymes EcoRI and NotI. DNA treated with the restriction enzymes was electrophoresed on an agarose gel (1%). An about 1.4 kb of DNA fragment was recovered and ligated to plasmid pMSRαneo digested with restriction enzymes EcoRI and NotI to construct a human-type glucagon receptor expression plasmid DNA “pMSRαneo/hGCGR”.
(2) Preparation of Glucagon Receptor Membrane Protein
A human-type glucagon receptor was expressed using FreeStyle CHO Expression System (Invitrogen). A transient expression in FreeStyle CHO cell was performed using a human-type glucagon receptor expression plasmid DNA “pMSRαneo/hGCGR” and according to the manual attached to the FreeStyle CHO Expression System. The above-mentioned DNA was transfected and the cultured with shaking for 2 days (37° C., 8% CO2, 125 rpm). 2400 ml of culture medium was centrifuged at 2,000 rpm for 10 min and the cells were collected. The collected cells were washed with PBS, suspended in homogenate buffer [10 mM NaHCO3 (pH 7.4), 1 mM EDTA, Complete EDTA-free (Roche, 1 tablet/50 ml)] and disrupted by polytron cell disrupter (Kinematica AG). Disruption solution was centrifuged at 2,000 rpm for 10 min and the supernatant was collected.
(3) Measurement of Glucagon Binding Inhibitory Activity
The plate was stood for 90 min at room temperature. The reaction solution was transferred from the reaction plate to a 96 well unifilter GF/C plate (Perkin Elmer Inc.) using a cell harvester (Perkin Elmer Inc.) and the membrane fraction was collected on the filter by suction. The filter was presoaked in 2 mg/ml of polyethyleneimine to prevent non-specific adsorption of labeled ligand. The filter was washed 4 times with a reaction buffer and dried for 2 hr at 42° C. To each well was added 25 μl of scintillator (MicroScint0; Perkin Elmer Inc.), and the fluorescence amount was measured using a microplate scintillation counter (TopCount NXT™; Perkin Elmer Inc.).
In addition, the inhibitory rate (%) of the well added with the test compound (10 μM; containing 0.4% DMSO) was calculated, using the reaction rate of the well added only with 0.4% DMSO as 0% inhibitory rate, and the reaction rate of the well added with non-labeled glucagon (final concentration 1 μM) as 100% inhibitory rate.

T1 sequence (P47871 26-477): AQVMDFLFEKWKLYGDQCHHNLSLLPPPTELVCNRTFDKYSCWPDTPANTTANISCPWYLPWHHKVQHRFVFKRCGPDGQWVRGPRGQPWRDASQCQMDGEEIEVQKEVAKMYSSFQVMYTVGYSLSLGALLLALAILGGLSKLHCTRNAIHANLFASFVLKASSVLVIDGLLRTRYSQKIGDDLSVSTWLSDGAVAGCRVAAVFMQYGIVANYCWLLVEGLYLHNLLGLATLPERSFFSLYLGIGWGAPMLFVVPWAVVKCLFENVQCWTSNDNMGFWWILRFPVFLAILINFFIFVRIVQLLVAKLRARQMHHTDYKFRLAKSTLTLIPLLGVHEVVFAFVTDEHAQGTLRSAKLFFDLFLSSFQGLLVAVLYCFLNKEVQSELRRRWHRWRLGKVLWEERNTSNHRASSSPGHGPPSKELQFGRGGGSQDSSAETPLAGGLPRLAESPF

SMILES	inhibition at 10 µM	IC50 (human glucagon receptor membrane protein, [125I]-glucagon, 90 min room temperature)
COc1ccc(-n2cc(C(Nc3ccc(C(=O)NCCC(=O)O)cc3)C3CCCCC3)c(C)n2)cc1 (stereo not shown) [Example 23, 3-({[4-({cyclohexyl[1-(4-methoxyphenyl)-3-methyl-1H-pyrazol-4-yl]methyl}amino)phenyl]carbonyl}amino)propanoic acid]	71%	–
COc1ccc(-n2cc(C(Nc3ccc(C(=O)N(C)CCC(=O)O)cc3)C3CCCCC3)c(C)n2)cc1 (stereo not shown) [Example 24, 3-[{[4-({cyclohexyl[1-(4-methoxyphenyl)-3-methyl-1H-pyrazol-4-yl]methyl}amino)phenyl]carbonyl}(methyl)amino]propanoic acid]	73%	–
Cc1nn(-c2ccc(OC(F)(F)F)cc2)cc1C(Nc1ccc(C(=O)NCCC(=O)O)cc1)C1CCCCC1 (stereo not shown) [Example 25, 3-[({4-[(cyclohexyl{3-methyl-1-[4-(trifluoromethoxy)phenyl]-1H-pyrazol-4-yl}methyl)amino]phenyl}carbonyl)amino]propanoic acid]	78%	–
Cc1nn(-c2ccc(OC(F)(F)F)cc2)cc1C(Nc1ccc(C(=O)N(C)CCC(=O)O)cc1)C1CCCCC1 (stereo not shown) [Example 26, 3-[({4-[(cyclohexyl{3-methyl-1-[4-(trifluoromethoxy)phenyl]-1H-pyrazol-4-yl}methyl)amino]phenyl}carbonyl)(methyl)amino]propanoic acid]	72%	–
Cc1nn(-c2ccc(C(F)(F)F)cc2)cc1C(Nc1ccc(C(=O)NCCC(=O)O)cc1)C1CCCCC1 (stereo not shown) [Example 27, 3-[({4-[(cyclohexyl{3-methyl-1-[4-(trifluoromethyl)phenyl]-1H-pyrazol-4-yl}methyl)amino]phenyl}carbonyl)amino]propanoic acid]	70%	–
Cc1nn(-c2ccc(C(F)(F)F)cc2)cc1C(Nc1ccc(C(=O)N(C)CCC(=O)O)cc1)C1CCCCC1 (stereo not shown) [Example 28, 3-[({4-[(cyclohexyl{3-methyl-1-[4-(trifluoromethyl)phenyl]-1H-pyrazol-4-yl}methyl)amino]phenyl}carbonyl)(methyl)amino]propanoic acid]	71%	–
COCc1nn(-c2ccc(C(F)(F)F)cn2)cc1C(Nc1ccc(C(=O)NCCC(=O)O)cc1)C1CCCCC1 (stereo not shown) [Example 29, 3-[({4-[(cyclohexyl{3-(methoxymethyl)-1-[5-(trifluoromethyl)pyridin-2-yl]-1H-pyrazol-4-yl}methyl)amino]phenyl}carbonyl)amino]propanoic acid]	77%	–
COCc1nn(-c2ccc(C(F)(F)F)cn2)cc1C(Nc1ccc(C(=O)N(C)CCC(=O)O)cc1)C1CCCCC1 (stereo not shown) [Example 30, 3-[({4-[(cyclohexyl{3-(methoxymethyl)-1-[5-(trifluoromethyl)pyridin-2-yl]-1H-pyrazol-4-yl}methyl)amino]phenyl}carbonyl)(methyl)amino]propanoic acid]	75%	–
Cc1nn(-c2ncc(C(F)(F)F)cc2Cl)cc1C(Nc1ccc(C(=O)NCCC(=O)O)cc1)C1CCCCC1 (stereo not shown) [Example 31, 3-{[(4-{[{1-[3-chloro-5-(trifluoromethyl)pyridin-2-yl]-3-methyl-1H-pyrazol-4-yl}(cyclohexyl)methyl]amino}phenyl)carbonyl]amino}propanoic acid]	67%	–
Cc1nn(-c2ncc(C(F)(F)F)cc2Cl)cc1C(Nc1ccc(C(=O)N(C)CCC(=O)O)cc1)C1CCCCC1 (stereo not shown) [Example 32, 3-{[(4-{[{1-[3-chloro-5-(trifluoromethyl)pyridin-2-yl]-3-methyl-1H-pyrazol-4-yl}(cyclohexyl)methyl]amino}phenyl)carbonyl](methyl)amino}-propanoic acid]	59%	–
COCc1nn(-c2ccc(OC(F)(F)F)cc2)cc1C(Nc1ccc(C(=O)NCCC(=O)O)cc1)C1CCCCC1 (stereo not shown) [Example 33, 3-[({4-[(cyclohexyl{3-(methoxymethyl)-1-[4-(trifluoromethoxy)phenyl]-1H-pyrazol-4-yl}methyl)amino]phenyl}carbonyl)amino]propanoic acid]	75%	–
COCc1nn(-c2ccc(OC(F)(F)F)cc2)cc1C(Nc1ccc(C(=O)N(C)CCC(=O)O)cc1)C1CCCCC1 (stereo not shown) [Example 34, 3-[({4-[(cyclohexyl{3-(methoxymethyl)-1-[4-(trifluoromethoxy)phenyl]-1H-pyrazol-4-yl}methyl)amino]phenyl}carbonyl)(methyl)amino]propanoic acid]	79%	–
COCc1nn(-c2ccc(OC)cc2)cc1C(Nc1ccc(C(=O)NCCC(=O)O)cc1)C1CCCCC1 (stereo not shown) [Example 35, 3-({[4-({cyclohexyl[3-(methoxymethyl)-1-(4-methoxyphenyl)-1H-pyrazol-4-yl]methyl}amino)phenyl]carbonyl}amino)propanoic acid]	75%	–
COCc1nn(-c2ccc(OC)cc2)cc1C(Nc1ccc(C(=O)N(C)CCC(=O)O)cc1)C1CCCCC1 (stereo not shown) [Example 36, 3-[{[4-({cyclohexyl[3-(methoxymethyl)-1-(4-methoxyphenyl)-1H-pyrazol-4-yl]methyl}amino)phenyl]carbonyl}(methyl)amino]propanoic acid]	69%	–
COCc1nn(-c2ccccc2)cc1C(Nc1ccc(C(=O)NCCC(=O)O)cc1)C1CCCCC1 (stereo not shown) [Example 37, 3-({[4-({cyclohexyl[3-(methoxymethyl)-1-phenyl-1H-pyrazol-4-yl]methyl}amino)phenyl]carbonyl}amino)propanoic acid]	70%	–
COCc1nn(-c2ccccc2)cc1C(Nc1ccc(C(=O)N(C)CCC(=O)O)cc1)C1CCCCC1 (stereo not shown) [Example 38, 3-[{[4-({cyclohexyl[3-(methoxymethyl)-1-phenyl-1H-pyrazol-4-yl]methyl}amino)phenyl]carbonyl}(methyl)amino]propanoic acid]	53%	–
Cc1nn(Cc2ccccc2)cc1C(Nc1ccc(C(=O)NCCC(=O)O)cc1)C1CCCCC1 (stereo not shown) [Example 41, 3-{[(4-{[(1-benzyl-3-methyl-1H-pyrazol-4-yl)(cyclohexyl)methyl]amino}phenyl)carbonyl]amino}propanoic acid]	60%	2300 nM
CCC(C)(C)n1cc(C(Nc2ccc(C(=O)NCCC(=O)O)cc2)C2CCCCC2)c(C)n1 (stereo not shown) [Example 43, 3-({[4-({cyclohexyl[1-(1,1-dimethylpropyl)-3-methyl-1H-pyrazol-4-yl]methyl}amino)phenyl]carbonyl}amino)propanoic acid]	54%	–
COc1ccc(-n2cc(C(CC(C)C)Nc3ccc(C(=O)NCCC(=O)O)cc3)c(C3CC3)n2)cc1 (stereo not shown) [Example 44, 3-({[4-({1-[3-cyclopropyl-1-(4-methoxyphenyl)-1H-pyrazol-4-yl]-3-methylbutyl}amino)phenyl]carbonyl}amino)propanoic acid]	69%	–
COc1ccc(-n2cc(C(CC(C)C)Nc3ccc(C(=O)N(C)CCC(=O)O)cc3)c(C3CC3)n2)cc1 (stereo not shown) [Example 45, 3-[{[4-({1-[3-cyclopropyl-1-(4-methoxyphenyl)-1H-pyrazol-4-yl]-3-methylbutyl}amino)phenyl]carbonyl}(methyl)amino]propanoic acid]	60%	–
COc1ccc(-n2cc(C(Nc3ccc(C(=O)NCCC(=O)O)cc3)C3CCCCC3)c(C3CC3)n2)cc1 (stereo not shown) [Example 46, 3-({[4-({cyclohexyl[3-cyclopropyl-1-(4-methoxyphenyl)-1H-pyrazol-4-yl]methyl}amino)phenyl]carbonyl}amino)propanoic acid]	71%	–
